Experimental data taken from PubChem BioAssay AID330 (DTP/NCI, 2004).
Where “and” joins values, the source holds several entries; their conditions need not be identical. Equal values may be shown once. Inconclusive results and toxic doses are left out.

Test system: P388 leukemia ip, CD2F1 mice, survival T/C
Test: NCI In Vivo Anticancer Drug Screen. Data for tumor model P388 Leukemia (intraperitoneal) in CD2F1 (CDF1) mice
Settings: endpoint: median survival time, higher = longer survival
How it was run: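 Mice carrying the transplanted tumor received test compound or vehicle. Survival was recorded in each group, and the value is the treated-group measurement divided by that of the vehicle-treated control group.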

[1] = dose: 60.0 mg/kg/injection, schedule: Q01DX005 (ip), vehicle: saline with Tween-80
[2] = dose: 120.0 mg/kg/injection, schedule: Q01DX005 (ip), vehicle: saline with Tween-80
[3] = dose: 240.0 mg/kg/injection, schedule: Q01DX005 (ip), vehicle: saline with Tween-80
[4] = dose: 100.0 mg/kg/injection, schedule: Q04DX002 (ip), vehicle: saline
[5] = dose: 200.0 mg/kg/injection, schedule: Q04DX002 (ip), vehicle: saline
[6] = dose: 400.0 mg/kg/injection, schedule: Q04DX002 (ip), vehicle: saline
[7] = dose: 50.0 mg/kg/injection, schedule: Q01DX009 (ip), vehicle: saline with Tween-80
[8] = dose: 100.0 mg/kg/injection, schedule: Q01DX009 (ip), vehicle: saline with Tween-80
[9] = dose: 200.0 mg/kg/injection, schedule: Q01DX009 (ip), vehicle: saline with Tween-80
[10] = dose: 50.0 mg/kg/injection, schedule: Q01DX005 (ip), vehicle: saline
[11] = dose: 100.0 mg/kg/injection, schedule: Q01DX005 (ip), vehicle: saline
[12] = dose: 200.0 mg/kg/injection, schedule: Q01DX005 (ip), vehicle: saline
[13] = dose: 50.0 mg/kg/injection, schedule: Q01DX005 (ip), vehicle: Klucel (hydroxypropylcellulose) (HPC)
[14] = dose: 100.0 mg/kg/injection, schedule: Q01DX005 (ip), vehicle: Klucel (hydroxypropylcellulose) (HPC)
[15] = dose: 50.0 mg/kg/injection, schedule: Q01DX005 (ip), vehicle: saline with Tween-80
[16] = dose: 100.0 mg/kg/injection, schedule: Q01DX005 (ip), vehicle: saline with Tween-80
[17] = dose: 200.0 mg/kg/injection, schedule: Q01DX005 (ip), vehicle: saline with Tween-80
[18] = dose: 100.0 mg/kg/injection, schedule: Q01DX009 (ip), vehicle: Klucel (hydroxypropylcellulose) (HPC)
[19] = dose: 200.0 mg/kg/injection, schedule: Q01DX009 (ip), vehicle: Klucel (hydroxypropylcellulose) (HPC)

Structure (SMILES): O=c1[nH]c2nc(SCc3ccccc3)n(Cc3ccccc3)c2c(=O)n1OS(=O)(=O)c1ccccc1
- T/C [1]: 98 % of control
- T/C [2]: 90 % of control
- T/C [3]: 90 % of control

Structure (SMILES): CCCS(=O)(=O)CCC(=O)c1cccs1
- T/C [4]: 104 % of control
- T/C [5]: 100 % of control
- T/C [6]: 101 % of control

Structure (SMILES): O=C(NCC1CC1)c1ccccc1NC(=O)c1cc2ccccc2oc1=O
- T/C [1]: 100 % of control
- T/C [2]: 100 % of control
- T/C [3]: 108 % of control

Structure (SMILES): COc1ccc(/C=N/NC(=S)NN)cc1
- T/C [1]: 99 % of control
- T/C [2]: 100 % of control
- T/C [3]: 98 % of control

Structure (SMILES): NC1=NC(O)C=C1 (stereo unspecified)
- T/C (dose: 12.5 mg/kg/injection, schedule: Q01DX005 (ip), vehicle: saline): 105 % of control
- T/C (dose: 25.0 mg/kg/injection, schedule: Q01DX005 (ip), vehicle: saline): 107 % of control

Structure (SMILES): C[n+]1ccccc1-c1ccc[n+](CCC[n+]2cccc(-c3cccc[n+]3C)c2)c1
- T/C [4]: 105 % of control
- T/C [5]: 102 % of control
- T/C [6]: 108 % of control

Structure (SMILES): c1c2c(cc3c1OCN(C1CC1)C3)OCN(C1CC1)C2
- T/C [7]: 94 % of control
- T/C [8]: 90 % of control
- T/C [9]: 96 % of control

Structure (SMILES): Cc1[nH]c2ccccc2c1CCCO
- T/C [10]: 105 % of control
- T/C [11]: 100 % of control
- T/C [12]: 105 % of control

Structure (SMILES): c1ccc2c(c1)N=NN1CCCOC21 (stereo unspecified)
- T/C [1]: 100 % of control
- T/C [2]: 95 % of control
- T/C [3]: 99 % of control

Structure (SMILES): CC1C2Cc3ccc(O)cc3C1(C)CCN2CCC(=O)c1ccccc1 (stereo unspecified)
- T/C [13]: 92 % of control
- T/C [14]: 88 % of control
- T/C (dose: 200.0 mg/kg/injection, schedule: Q01DX005 (ip), vehicle: Klucel (hydroxypropylcellulose) (HPC)): 88 % of control

Structure (SMILES): O=c1c2ccccc2[nH]c(=S)n1-c1cccc(C(F)(F)F)c1
- T/C [7]: 92 % of control
- T/C [8]: 94 % of control
- T/C [9]: 100 % of control

Structure (SMILES): Nc1cnns1
- T/C (dose: 11.25 mg/kg/injection, schedule: Q01DX009 (ip), vehicle: water): 100 % of control
- T/C (dose: 22.5 mg/kg/injection, schedule: Q01DX009 (ip), vehicle: water): 102 % of control
- T/C (dose: 45.0 mg/kg/injection, schedule: Q01DX009 (ip), vehicle: water): 105 % of control
- T/C (dose: 90.0 mg/kg/injection, schedule: Q01DX009 (ip), vehicle: water): 119 % of control
- T/C (dose: 180.0 mg/kg/injection, schedule: Q01DX009 (ip), vehicle: water): 105 % of control

Structure (SMILES): CCc1cccc2c(NCCCCCCCCCCNc3c4ccccc4nc4c(CC)cccc34)c3ccccc3nc12
- T/C (dose: 0.62 mg/kg/injection, schedule: Q## X009 (ip), vehicle: lactic acid): 104 % of control
- T/C (dose: 1.25 mg/kg/injection, schedule: Q## X009 (ip), vehicle: lactic acid): 107 % of control
- T/C (dose: 2.5 mg/kg/injection, schedule: Q## X009 (ip), vehicle: lactic acid): 113 % of control

Structure (SMILES): O=[N+]([O-])c1c(Cl)sc(Cl)c1[N+](=O)[O-]
- T/C (dose: 1.56 mg/kg/injection, schedule: Q01DX009 (ip), vehicle: saline with Tween-80): 105 % of control
- T/C (dose: 3.12 mg/kg/injection, schedule: Q01DX009 (ip), vehicle: saline with Tween-80): 104 % of control
- T/C (dose: 6.25 mg/kg/injection, schedule: Q01DX009 (ip), vehicle: saline with Tween-80): 87 % of control and 95 % of control
- T/C (dose: 6.25 mg/kg/injection, schedule: Q04DX003 (ip), vehicle: saline sonified): 110 % of control
- T/C (dose: 12.5 mg/kg/injection, schedule: Q04DX003 (ip), vehicle: saline sonified): 100 % of control
- T/C (dose: 25.0 mg/kg/injection, schedule: Q04DX003 (ip), vehicle: saline sonified): 100 % of control

Structure (SMILES): O=C(OCc1ccccc1)N1CC=CC1Cc1ccccc1 (stereo unspecified)
- T/C (dose: 100.0 mg/kg/injection, schedule: Q01DX001 (ip), vehicle: distilled water + alcohol): 97 % of control
- T/C (dose: 200.0 mg/kg/injection, schedule: Q01DX001 (ip), vehicle: distilled water + alcohol): 99 % of control
- T/C (dose: 400.0 mg/kg/injection, schedule: Q01DX001 (ip), vehicle: distilled water + alcohol): 100 % of control

Structure (SMILES): CNC(=O)c1ccccc1Sc1ccccc1C(=O)NC
- T/C (dose: 100.0 mg/kg/injection, schedule: Q01DX001 (ip), vehicle: other): 100 % of control
- T/C (dose: 200.0 mg/kg/injection, schedule: Q01DX001 (ip), vehicle: other): 101 % of control
- T/C (dose: 400.0 mg/kg/injection, schedule: Q01DX001 (ip), vehicle: other): 100 % of control

Structure (SMILES): O=C(O)CSC(c1ccccc1)(c1ccc(-c2ccccc2)cc1)c1cccc2ccccc12 (stereo unspecified)
- T/C [15]: 95 % of control
- T/C [16]: 109 % of control
- T/C [17]: 109 % of control

Structure (SMILES): CCC1OC(O)C=CC1=O (stereo unspecified)
- T/C (dose: 1.5 mg/kg/injection, schedule: Q01DX005 (ip), vehicle: saline): 99 % of control
- T/C (dose: 3.0 mg/kg/injection, schedule: Q01DX005 (ip), vehicle: saline): 93 % of control

Structure (SMILES): COC(=O)c1[nH]cnc1/N=N\N(CCF)CCF
- T/C (dose: 44.0 mg/kg/injection, schedule: Q04DX003 (ip), vehicle: saline with Tween-80): 155 % of control
- T/C (dose: 66.0 mg/kg/injection, schedule: Q04DX003 (ip), vehicle: saline with Tween-80): 110 % of control

Structure (SMILES): C=C1C(=O)SC(=NCc2ccccc2)N1C
- T/C [1]: 96 % of control
- T/C [2]: 90 % of control
- T/C [3]: 91 % of control

Structure (SMILES): CC(C)CNc1ncnc2n[nH]nc12
- T/C [15]: 100 % of control
- T/C [16]: 103 % of control
- T/C [17]: 100 % of control

Structure (SMILES): COc1c2c(c(O)c3c4c(c(C)cc13)C1OC3(C(OC)OC5CC(C)(O)C(OC6CC(C)(O)C(O)C(C)O6)C(C)O5)OC1C(OC)(O4)C31CO1)C(=O)C(O)CC2OC1CC(C)(O)C(OC(C)=O)C(C)O1 (stereo unspecified)
- T/C (dose: 0.06 mg/kg/injection, schedule: Q01DX005 (ip), vehicle: saline): 158 % of control
- T/C (dose: 0.13 mg/kg/injection, schedule: Q01DX005 (ip), vehicle: saline): 155 % of control and 166 % of control

Structure (SMILES): C=C1C(=O)OC2(CCCCC)CCCCC12 (stereo unspecified)
- T/C (dose: 50.0 mg/kg/injection, schedule: Q01DX009 (ip), vehicle: saline): 96 % of control
- T/C (dose: 100.0 mg/kg/injection, schedule: Q01DX009 (ip), vehicle: saline): 99 % of control
- T/C (dose: 200.0 mg/kg/injection, schedule: Q01DX009 (ip), vehicle: saline): 96 % of control

Structure (SMILES): Nc1cccc2c1C(=O)c1cccc3snc-2c13
- T/C (dose: 12.5 mg/kg/injection, schedule: Q01DX005 (ip), vehicle: Klucel (hydroxypropylcellulose) (HPC)): 102 % of control
- T/C (dose: 25.0 mg/kg/injection, schedule: Q01DX005 (ip), vehicle: Klucel (hydroxypropylcellulose) (HPC)): 104 % of control
- T/C [13]: 100 % of control and 97 % of control
- T/C [14]: 87 % of control

Structure (SMILES): O=C(O)CCSSCCCCS(=O)O
- T/C [10]: 114 % of control
- T/C [11]: 114 % of control
- T/C [12]: 100 % of control

Structure (SMILES): c1ccc2c(C[Se][Se]Cc3cccc4ccccc34)cccc2c1
- T/C [18]: 90 % of control
- T/C [19]: 90 % of control

Structure (SMILES): COc1cc2c(cc1OC)[C@]13C[C@@H](OC)C=CC14OC4CN3CCC2 (stereo partly specified)
- T/C (dose: 20.0 mg/kg/injection, schedule: Q01DX009 (ip), vehicle: saline with Tween-80): 90 % of control
- T/C (dose: 40.0 mg/kg/injection, schedule: Q01DX009 (ip), vehicle: saline with Tween-80): 95 % of control
- T/C (dose: 80.0 mg/kg/injection, schedule: Q01DX009 (ip), vehicle: saline with Tween-80): 90 % of control
- T/C (dose: 150.0 mg/kg/injection, schedule: Q01DX009 (ip), vehicle: saline with Tween-80): 122 % of control

Structure (SMILES): O=C(O)C(=O)O.O=C(O)C(=O)O.O=C(O)C(=O)O.[Co]
- T/C (dose: 6.25 mg/kg/injection, schedule: Q04DX002 (ip), vehicle: saline): 91 % of control
- T/C (dose: 12.5 mg/kg/injection, schedule: Q04DX002 (ip), vehicle: saline): 100 % of control
- T/C (dose: 25.0 mg/kg/injection, schedule: Q04DX002 (ip), vehicle: saline): 91 % of control

Structure (SMILES): CCOC(=O)c1nc(C)[nH]c1C
- T/C (dose: 50.0 mg/kg/injection, schedule: Q01DX009 (ip), vehicle: Klucel (hydroxypropylcellulose) (HPC)): 100 % of control
- T/C [18]: 95 % of control
- T/C [19]: 100 % of control

Structure (SMILES): CCCn1c2nc(=O)[nH]c(=O)c-2[n+]([O-])c2ccccc21
- T/C (dose: 6.25 mg/kg/injection, schedule: Q01DX001 (ip), vehicle: saline with Tween-80): 97 % of control
- T/C (dose: 12.5 mg/kg/injection, schedule: Q01DX001 (ip), vehicle: saline with Tween-80): 98 % of control
